The data set is described as follows: Human HepG2 cell viability assay in 384 well format. On the set-up: dose 125 nL, time 70.5 hour; cytotoxicity at 70.5 h: concentration not given beside the values. The following applies: HepG2 cells, read-out: Inhibition. It is filed as toxicity, cell-based.
Take `COCCN1CCC12CCN(C(=O)c1ccc3[nH]ccc3c1)C2` (centres undefined): the cytotoxicity at 70.5 h is -7.37%.
Take `Cc1nn(C)c2ncc(NC(=O)N3CCNC(=O)C3)cc12`: the cytotoxicity at 70.5 h is -6.74%.
The same measure for `COC(=O)[C@@H]1Cc2ncn(C)c2CN1S(=O)(=O)c1cccs1`: -1.34%.
Regarding `CCCSc1ncc(CN2CCN(C)C(=O)C2C)cn1` (centres undefined), the cytotoxicity at 70.5 h came to 20.3%.
For `Cc1cn2nc(N3CCCC3Cn3cccn3)sc2n1` (centres undefined), the cytotoxicity at 70.5 h was -4.17%.
For `CN1CCN(Cc2cccc(C#N)c2)Cc2cccnc21`, the cytotoxicity at 70.5 h is -7.78%.
As for `CCN(C)C(=O)Nc1cc(F)c(OC)cc1F`, the figure is 18.4%; as for `O=C(NCCCN1CCOCC1)c1ccc(-n2ccc3ccccc32)s1`, -3.96%.
For the compound `CNc1ccc(CC2CCCN(C(=O)c3cnco3)C2)nn1` (centres undefined), the cytotoxicity at 70.5 h is -9.21%.
As for `O=C(NCCCc1ccccn1)c1cn(CCN2CCNCC2)nn1`, the cytotoxicity at 70.5 h is -9.59%.
Turning to `NS(=O)(=O)N1CCC(CSc2ccccc2)C1` (centres undefined), the cytotoxicity at 70.5 h was -9.2%.
In the case of `CC1CCCN(C(=O)Cn2cc(I)cn2)C1` (centres undefined), the cytotoxicity at 70.5 h was -3.76%.
As for `CCN1CC2(CCN(C(=O)C(C)Oc3ccc(F)cc3F)CC2)OC1=O` (centres undefined), the figure is -1.13%; as for `Cc1nc2c(c(NC3CC3)n1)CCN(C(=O)CCc1cccnc1)CC2`, 12.4%; as for `Cc1cnn(CC2CCCN2Cc2c(C)noc2C)c1` (centres undefined), -3.04%.
Regarding `CNC(=O)[C@@]12CCO[C@@H]1CCN(S(=O)(=O)c1cccc(F)c1)C2`, the cytotoxicity at 70.5 h is -10.2%.
For `NC(=O)c1ccc(=O)n(Cc2cc(Br)ccc2Cl)n1`, the cytotoxicity at 70.5 h is -5.48%.
As to `O=C(O)c1cnc(OCC2CC2)c(Cl)c1`, the cytotoxicity at 70.5 h was -0.42%.
The same measure for `Cc1noc(C2CCN(C(=O)CCCNc3ncccn3)CC2)n1`: 1.13%.
As for `CCn1nc(C)c2nc(C(C)C)nc(NCC(=O)N3CCOCC3)c21`, the cytotoxicity at 70.5 h worked out at 5.24%.
With `CCN1CC2(CCCCN2C(=O)C2CCCCC2)CC1=O` (centres undefined), the cytotoxicity at 70.5 h was -7.76%.
Consider `COC(=O)c1cc(OCC2CCC2)cc(C(=O)N[C@H]2CC[C@H](O)CC2)c1`, for which the cytotoxicity at 70.5 h was found to be 15.3%.
As for `CCOC(=O)c1nc(COc2ccc(CC(N)=O)cc2)no1`, the figure is -10.5%.
Regarding `O=C(NCCCn1ccnc1)C1COCC(=O)N1Cc1ccccc1` (centres undefined), the cytotoxicity at 70.5 h was -16%.
As for `Cc1ncsc1CCN(C)Cc1ccc(Br)o1`, the figure is 9.94%; as for `CC(=O)N1CC[C@@H]2CN(Cc3cccc(Cl)c3)S(=O)(=O)[C@@H]2CC1`, -1.91%.
As to `O=C(c1nc2c(o1)CN(CC1CC1)C2)N1CCCC1`, the cytotoxicity at 70.5 h is -13.1%.
`CCCOCCN1CCc2[nH]c(-c3ccccc3)nc2C1`: the cytotoxicity at 70.5 h was 11.7%.
On to `Cc1nc(NC(C)C)nc2c1CN(Cc1nccn1C)CC2`, for which the cytotoxicity at 70.5 h was 0.21%.
The same measure for `CCSCCC(C)N(C)C(=O)c1ccc2nncn2c1` (centres undefined): -4.21%; for `Cc1ccc(-n2cnc(Cl)c2CO)cc1`: -3.28%; for `Cc1noc(-c2ccnc(Oc3ccc(CN4CCCC4)cc3C)c2)n1`: -4.76%.
Take `COc1ccccc1S(=O)(=O)N1CCC2(CC1)[C@H](O)C[C@@H]2O`: the cytotoxicity at 70.5 h is -10.2%.
Regarding `NCCn1nc(C2CCN(Cc3ccccc3)C2)c2nccnc21` (centres undefined), the cytotoxicity at 70.5 h was determined as 0.0423%.
The same measure for `Cc1nc2cc(C3CCN(C(=O)c4ccccn4)CC3)nn2c(O)c1C`: 44.6%.
In the case of `Cc1ccc(CNCc2nnc3n2CCCC3C(F)(F)F)s1` (centres undefined), the cytotoxicity at 70.5 h is -10.1%.
Consider `O=C(CCn1cc(Cl)cn1)N1CCC2(CC1)[C@H](O)C[C@@H]2OCCO`, for which the cytotoxicity at 70.5 h is -1.08%.
As for `CCOc1cc(CNC(C)c2sccc2C)ccn1` (centres undefined), the figure is -0.185%; as for `O=C([C@H]1CCCO1)N1CC[C@@H](O)[C@@H]1Cc1ccccc1`, -8.36%.
As for `CCc1nc(CN2CCOC(Cn3nc(C)cc3C)C2)no1` (centres undefined), the figure is 38.2%; as for `O=C(CSc1nncs1)N1CCN(Cc2ccc(Cl)s2)CC1`, -9.92%.
With `COc1ccc(OC2CCN(C(=O)CCc3n[nH]c(N)n3)CC2)cc1`, the cytotoxicity at 70.5 h stood at 21.5%.
Turning to `COc1ccc(CN2CC[C@@]3(O)CCCC[C@H]3C2)cc1C(=O)O`, the cytotoxicity at 70.5 h stood at 8.88%.
In the case of `Cc1noc(C)c1CN1CCC2(CCN(Cc3cccc(F)c3)CC2)C1`, the cytotoxicity at 70.5 h is -9.09%.
The same measure for `Clc1cc(CN2CCCC2Cn2cncn2)c2ncccc2c1` (centres undefined): -20.8%; for `Cc1nc(C)c(CC(=O)Nc2ncc(C)s2)c(=O)[nH]1`: -1.19%; for `CC(C)(O)CN1CCN(C(=O)c2cc(Cl)cc3cccnc23)CC1`: -11.7%.
In the case of `CN(C)c1ccc(C(=O)NCc2ccc(N3CCOCC3)cc2)cn1`, the cytotoxicity at 70.5 h was determined as 14.5%.
`CSc1ccccc1C(=O)NCCC(O)c1ccco1` (centres undefined): the cytotoxicity at 70.5 h was 16.9%.
Take `OCCN(Cc1cccnc1)c1ccc(Br)cn1`: the cytotoxicity at 70.5 h is -2.3%.
Regarding `Cc1cccnc1NC(=O)c1ccc(-n2ncc(C#N)c2N)cc1`, the cytotoxicity at 70.5 h is -4.45%.
As for `COCCOc1ccc(CNc2cnc3ccccc3n2)cn1`, the figure is -10.9%; as for `CN(C)CC(=O)N1CCc2sc(C(=O)NCC3CC3)cc21`, -12.2%; as for `Fc1cccc(CN2CCOC3(COCCN(CC4CC4)C3)C2)c1` (centres undefined), -8.93%.
As for `O=C(CN1CCCc2c(F)cc(Br)cc21)N1CCCC1`, the figure is 3.5%; as for `CC(C)(C)CC(=O)N1CSCC1C(=O)NC1=NCCS1` (centres undefined), 19.4%; as for `COc1ccc(CNCC2CN(C3CC3)CCO2)cc1F` (centres undefined), -8.08%.
For `Cc1cn2nc(N3CCCC3C(=O)N3CCN(C)CC3)sc2n1` (centres undefined), the cytotoxicity at 70.5 h came to 13.5%.
`Cc1nn(C)c(C)c1C1COCCN1C(=O)c1n[nH]c2ccccc12` (centres undefined): the cytotoxicity at 70.5 h was -10.8%.
As to `COc1cccc([C@@H]2CCN(Cc3c[nH]c(C)n3)C[C@H]2O)c1`, the cytotoxicity at 70.5 h came to 17.7%.
As for `O=C(NCC(c1ccc(F)cc1)N1CCOCC1)Nc1cn[nH]c1` (centres undefined), the figure is 18.9%.
With `Cc1nc(CN2CCO[C@H]3CN(C(=O)c4cccn4C)C[C@H]32)cs1`, the cytotoxicity at 70.5 h is 5.54%.
In the case of `CC(=O)N1[C@H](CN(C)C)C[C@@H]2CN(C(=O)Cc3cccs3)CC[C@@H]21`, the cytotoxicity at 70.5 h is -21.3%.
For `Cc1cccc(COC[C@@H]2CC[C@H]3[C@H](CCN3Cc3ccco3)O2)n1`, the cytotoxicity at 70.5 h is -6.18%.
For the compound `CNC(=O)[C@@H]1CN(C(=O)C(C)C)C[C@H]1c1ccnc(N2CCCC2)n1`, the cytotoxicity at 70.5 h is -3.61%.
The same measure for `NC(=O)CN1CCOCC(Cc2ccccc2)C1` (centres undefined): -11.7%; for `OCc1cc2ccccc2nc1NC1CC=CC1`: -5.4%; for `Cc1ccc(N2CCCN(C(=O)C3(C#N)CCCCC3)CC2)nn1`: -0.352%.
Take `CCC1CNCc2cc3c(C)ccc(C)c3nc2O1` (centres undefined): the cytotoxicity at 70.5 h is -1.78%.
For the compound `Cc1cc(C)n(CC2CCCN2C(=O)CCNc2ncccn2)n1` (centres undefined), the cytotoxicity at 70.5 h was -4.55%.
As for `Cc1noc(C)c1-c1ccnc(C2CCN(C3CCOCC3)CC2)c1`, the figure is 0.77%.
As to `CC(Cn1cccn1)NCc1nc(-c2cccnc2)no1` (centres undefined), the cytotoxicity at 70.5 h was -3.96%.
On to `O=C(O)c1c(NC2CCC2)ncc2c1CCN(C1CCOC1)C2` (centres undefined), for which the cytotoxicity at 70.5 h is -6.13%.
Regarding `Cc1nn(C)c(N(C)C)c1CNCC(O)COc1cccc(F)c1` (centres undefined), the cytotoxicity at 70.5 h was -11.4%.
Regarding `Cc1ccc2nc(C(=O)N3CCCC[C@]4(C)NC(=O)CCC[C@H]34)cn2c1`, the cytotoxicity at 70.5 h was -4.04%.
As for `CCn1ncc2c(C(F)F)cc(-c3ccn(C)n3)nc21`, the cytotoxicity at 70.5 h is -7.69%.
Consider `Cc1cnc(N2C[C@H]3C[C@H](C(=O)N4CCN(C)CC4)N(C)[C@H]3C2)nc1`, for which the cytotoxicity at 70.5 h was -9.1%.
The same measure for `CC(C)c1cc(NC(=O)CN2CCCC2Cn2cncn2)on1` (centres undefined): -9.97%.
As to `Cn1cc(CN2CCCN(C(=O)c3ccc4ccccc4n3)CC2)cn1`, the cytotoxicity at 70.5 h is -13%.
For `CC(C)N1[C@@H](C(=O)NCC2CC2)C[C@@H]2CN(Cc3ccco3)C[C@@H]21`, the cytotoxicity at 70.5 h is -13.6%.
With `CN(C)c1ccc(-c2nnc([C@H]3CCN(C4CCCCC4)C3)o2)cc1`, the cytotoxicity at 70.5 h was -4.32%.
The same measure for `Cc1cncc(C(=O)N2CCC3(CCCN(c4nncs4)C3)C2)c1` (centres undefined): -3.85%; for `Cc1ncsc1CN1C[C@@H]2COC[C@]2(CNC(=O)c2ccco2)C1`: -10.4%; for `Cc1occc1C(=O)NCc1cccnc1N(C)C`: -14.4%.
In the case of `O=C(Nc1cnn(COc2ccc(F)cc2Cl)c1)C1CC1`, the cytotoxicity at 70.5 h came out at 9.89%.
As for `COCCCn1ccc(NCc2cnc(C(C)(C)C)s2)n1`, the figure is 27.4%; as for `CN(Cc1noc(C2CC2)n1)C1CCN(CCn2cc(C#N)cn2)C1` (centres undefined), 22.1%.
Regarding `CC(=O)N[C@@H]1Cc2ccccc2[C@H]1Nc1ccncn1`, the cytotoxicity at 70.5 h was -5.99%.
As for `O=C(N[C@H]1CN[C@H]2CCCO[C@H]21)c1cccnc1`, the cytotoxicity at 70.5 h was -10.1%.
Consider `CC(C)(C)c1nnc(CN2CCN(S(C)(=O)=O)CC2)o1`, for which the cytotoxicity at 70.5 h is -2.04%.
Consider `O=C(CCn1cccn1)NCC(c1cccs1)N1CCOCC1` (centres undefined), for which the cytotoxicity at 70.5 h is 25.6%.
Take `CC(C)NC(=O)N1CCCC2(CCN(c3ccsc3)C2=O)C1` (centres undefined): the cytotoxicity at 70.5 h is -12.5%.
On to `COCCN1CCC(CN(CC2CCCO2)C(=O)Cc2cccs2)CC1` (centres undefined), for which the cytotoxicity at 70.5 h was -4.23%.
Consider `COc1nn(C)c2c1CCCN(C(=O)COc1ccccc1)C2`, for which the cytotoxicity at 70.5 h was -104%.
The same measure for `Cc1ccc(C2NC(=O)c3cc(C(C)C)sc3N2)cc1` (centres undefined): -5.82%; for `CC(NC(=O)Nc1ccccc1CN1CCOCC1)c1nnc(N)s1` (centres undefined): -11.9%; for `COc1ccc(CN2CCc3ncnc(C4CC4)c3CC2)cc1`: 1.6%.
The same measure for `Cc1noc(C)c1CN1C[C@@H]2CCCO[C@@H]2[C@H](NS(C)(=O)=O)C1`: -9.8%; for `Cc1cc(C)nc(N2CCC(c3cncc(-n4ccnc4)n3)CC2)n1`: -6.63%.

For the origin of these results see ChEMBL document CHEMBL3507680, “University of Dundee, Gates Library screen for HepG2 cell viability”.
